Source: publication PMC8703317, “2-(Piperidin-4-yl)acetamides as Potent Inhibitors of Soluble Epoxide Hydrolase with Anti-Inflammatory Activity” (Pharmaceuticals, 2021)

Experiments:
[1] = target: T1, murine sEH (Mus musculus, UniProt P34914); assay: fluorescent-based sEH inhibition assay, recombinant mouse sEH; format: biochemical; conditions: baculovirus expressed recombinant mouse sEH, average of three replicates
T1 construct: made in house; host or cells: baculovirus expression system (insect cells implied)
T1 sequence (P34914 1-554): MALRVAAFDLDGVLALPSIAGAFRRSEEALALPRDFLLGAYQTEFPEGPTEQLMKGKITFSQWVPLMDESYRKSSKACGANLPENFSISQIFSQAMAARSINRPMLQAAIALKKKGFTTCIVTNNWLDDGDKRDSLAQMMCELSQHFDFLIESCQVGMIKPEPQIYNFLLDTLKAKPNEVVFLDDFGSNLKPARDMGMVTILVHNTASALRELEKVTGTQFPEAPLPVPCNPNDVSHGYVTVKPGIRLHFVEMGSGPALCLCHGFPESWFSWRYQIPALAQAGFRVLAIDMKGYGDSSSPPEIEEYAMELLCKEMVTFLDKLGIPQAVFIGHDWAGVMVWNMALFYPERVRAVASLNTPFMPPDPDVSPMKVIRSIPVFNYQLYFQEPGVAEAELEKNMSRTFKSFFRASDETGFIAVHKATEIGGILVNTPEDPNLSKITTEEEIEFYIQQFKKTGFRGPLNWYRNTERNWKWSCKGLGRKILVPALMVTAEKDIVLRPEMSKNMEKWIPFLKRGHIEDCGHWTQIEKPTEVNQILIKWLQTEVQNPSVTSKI
Description: The potency of all the new compounds as inhibitors of the human and murine sEH was tested using a previously reported sensitive fluorescent-based assay using baculovirus expressed recombinant human and mouse sEH [28].

[2] = system: microglial BV2 cells activated with LPS; assay: nitric oxide generation (nitrite, Griess) in LPS-activated BV2 microglial cells; format: cell-based; conditions: LPS 0.1 or 1 μg/mL, 24 h
Description: Inflammatory changes were determined by the measure of nitric oxide generation, as the endpoint of iNOS activation, in microglial BV2 cells. BV2 cells (HyperCLDB, Banca Biologica e Cell Factory, ICLC ATL 03001) were grown in RPMI 1640 medium, supplemented with L-glutamine 2 mM, gentamycin 50 µM and 10% FBS. For experiments, cells were seeded in 96-well plates at 2 × 10^5 cells/mL, 100 µL/well. […] After 1 h of incubation, the cells were treated with the pro-inflammatory chemical LPS (0.1 μg/mL or 1 μg/mL; strain E. coli […], Sigma-Aldrich, L-2654, batch #120M4028) and further incubated for 24 h. TPPU at 100 µM was also assayed as a reference anti-inflammatory compound. DMSO 0.1% was used as vehicle. Cells were maintained at 37 °C in a humidified incubator with 5% CO2 throughout the procedures. Nitric oxide released to the culture medium was measured by the colorimetric Griess reaction that detects nitrite (NO2^–), a stable reaction product of nitric oxide and molecular oxygen. Briefly, 50 µL of conditioned medium were incubated with 50 µL of Griess reagent for 10 min at room temperature. Optical density was measured at 540 nm. Nitrite concentration was determined from a sodium nitrite standard curve. Results were normalized by cell protein content in the well and expressed as a percentage of the average maximal values given by the pro-inflammatory agent (LPS 1 µg/mL). Each treatment was performed in 3–5 wells and the whole experiment was repeated 3–4 times in cultures of different cell passage. Data were analyzed by ANOVA followed by Tukey’s multiple comparisons test.

[3] = microsomal stability, mouse microsomes; format: in vitro ADME; conditions: pooled murine microsomes, pH 7.4; 60 min incubation with mouse microsomes, NADPH, 37 °C
Description: (§1) The human and murine pooled microsomes employed were purchased from Tebu-Xenotech (Barcelona, Spain). The compound was incubated at 37 °C with the microsomes in a 50 mM phosphate buffer (pH = 7.4) containing 3 mM MgCl2, 1 mM NADP, 10 mM glucose-6-phosphate and 1 U/mL glucose-6-phosphate-dehydrogenase. Samples (75 µL) were taken from each well at 0, 10, 20, 40 and 60 min and transferred to a plate containing 4 °C 75 µL acetonitrile and 30 µL of 0.5% formic acid in water were added for improving the chromatographic conditions. The plate was centrifuged (46000 g, 30 min) and supernatants were taken and analyzed in a UPLC-MS/MS (Xevo-TQD, Waters) by employing a BEH C18 column and an isocratic gradient of 0.1% formic acid in water: 0.1% formic acid acetonitrile (60:40). The metabolic stability of the compounds was calculated from the logarithm of the remaining compounds at each of the time points studied.

[4] = microsomal stability, human microsomes; format: in vitro ADME; conditions: pooled human microsomes, pH 7.4; 60 min incubation with human microsomes, NADPH, 37 °C
Description: as §1

[5] = system: SH-SY5Y neuroblastoma cells; assay: cytotoxicity by propidium iodide staining in SH-SY5Y cells; format: cell-based; conditions: 24 h incubation, up to 100 µM (highest concentration tested), vehicle DMSO 0.1%, n = 10–12
Description: Cytotoxicity was evaluated in the human neuroblastoma SH-SY5Y cell line (ATCC Number: CRL-2266). Cells were cultured in minimum essential medium/HAM’s-F12 (1:1, v/v) medium, supplemented with non-essential amino acids, L-glutamine 1 mM, gentamycin 50 µM and 10% heat inactivated fetal bovine serum (FBS). For experiments, the cells were seeded at 3 × 10^5 cells/mL (100 µL/well) in 96-well plates. […] DMSO 0.1% was used as vehicle. Treated cultures were returned to the incubator for a 24 h test exposure. One hour before termination, cell death was measured by PI staining. Briefly, PI (Molecular Probes) at the final concentration of 7.5 µg/mL was added to the cells and incubated for 1 h. PI enters into cells with damaged membrane and binds to DNA yielding intense red fluorescence. Fluorescence was measured in a SAFAS FLX-Xenius microplate reader (Monaco) at 530 nm excitation and 645 nm emission. Percentage of cell death for a given fluorescence value (Ft) was calculated according to the values given by Triton X100 killed cells (Fmax; 100% cell death) and vehicle treated cells (Fmin; 0% cell death) [% = ((Ft-Fmin)/(Fmax-Fmin)) × 100]. Each treatment was assayed in 3–4 wells per experiment and the experiment was repeated 3 times in cultures of different cell passages. Data were analyzed by ANOVA.

SMILES: O=C(CC1CCN(c2ccc(C(=O)O)cc2)CC1)NC12CC3CC(F)(CC(C1)c1ccccc13)C2 [10c, 4-(4-(2-((9-Fluoro-5,6,8,9,10,11-hexahydro-7H-5,9:7,11-dimethanobenzo[9]annulen-7-yl)amino)-2-oxoethyl)piperidin-1-yl)benzoic Acid]
- IC50 [1]: 0.7 nM
- nitric oxide generation (nitrite levels) in presence of LPS ([2]; compound at 50 µM): indistinguishable from control levels
- nitric oxide generation (nitrite levels) in presence of LPS ([2]; compound at 100 µM): indistinguishable from control levels
- remaining at 1 h [3]: 29%
- remaining at 1 h [4]: 60%
- cytotoxicity, percentage of cell death (PI staining) [5]: no cytotoxicity
